Laboratory results reported in patent US20110045101A1, “FUNGICIDAL SUBSTITUTED AZOLES” (E.I. Du Pont De Nemours and Company, priority 2009, published 2011).
Marks after values point to notes of the source that are not given here.

Tests used:
Format in all cases: in vivo
Conditions in all cases: 100 = 100% disease control
[1] = tested on: Erysiphe graminis f. sp. tritici; test: Test J: wheat powdery mildew on wheat seedlings, sprayed the day before inoculation, visual disease rating
Method in brief: (§1)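 Compounds were dissolved in acetone (3% of final volume), then suspended in 50/50 acetone/purified water with 250 ppm Trem® 014 surfactant. Suspensions at 200 ppm (some at 40 ppm) were sprayed to run-off, 200 ppm being equivalent to 500 g/ha.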

Septoria nodorum = test: Test F: wheat glume blotch on wheat seedlings, sprayed the day before inoculation, visual disease rating
Method in brief: as §1

Septoria tritici = test: Test G: wheat leaf blotch on wheat seedlings, sprayed the day before inoculation, visual disease rating
Method in brief: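 Visual disease ratings taken 19 days after transfer to a 20° C growth chamber, following 48 h in saturated atmosphere at 24° C. Seedlings had been sprayed to run-off one day before spore inoculation. Dose 200 ppm, or 40 ppm where starred.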

[2] = tested on: Puccinia recondita f. sp. tritici; test: Test H: wheat leaf rust, test suspension sprayed after inoculation of wheat seedlings, visual disease rating
Method in brief: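 Wheat seedlings inoculated with P. recondita spores, held 24 h saturated at 20 °C, then 2 days in growth chamber at 20 °C; compound suspension (acetone/water with Trem 014) sprayed to run-off afterwards. Rated visually; 200 ppm (≈500 g/ha) unless marked *, which denotes 40 ppm.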

Botrytis cinerea = test: Test C: tomato Botrytis on tomato seedlings, sprayed the day before inoculation, visual disease rating
Method in brief: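 Compounds were dissolved in acetone (3% of final volume), then suspended in 50/50 acetone/purified water containing 250 ppm polyhydric alcohol ester surfactant. Suspensions were sprayed to run-off on tomato seedlings at 200 ppm, equivalent to 500 g/ha, or at 40 ppm where marked.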

Alternaria solani = test: Test D: tomato early blight, sprayed the day before inoculation, visual disease rating
Method in brief: as §1

[3] = tested on: Puccinia recondita f. sp. tritici; test: Test I: wheat leaf rust on wheat seedlings, sprayed the day before inoculation, visual disease rating
Method in brief: as §1

[4] = 200 ppm, 0 = no control relative to controls

Row | Compound | Test J disease control rating [1, 4] | Test F disease control rating (Septoria nodorum; [4]) | Test G disease control rating (Septoria tritici; [4]) | Test H disease control rating [2, 4] | Test C disease control rating (Botrytis cinerea; [4]) | Test D disease control rating (Alternaria solani; [4]) | Test I disease control rating [3, 4] | Test J disease control rating ([1]; 40 ppm (marked *)) | Test F disease control rating (Septoria nodorum; 40 ppm (marked *)) | Test G disease control rating (Septoria tritici; 40 ppm (marked *)) | Test H disease control rating ([2]; 40 ppm (marked *)) | Test C disease control rating (Botrytis cinerea; 40 ppm (marked *)) | Test D disease control rating (Alternaria solani; 40 ppm (marked *)) | Test I disease control rating ([3]; 40 ppm (marked *))
1 | COc1cc(OC)c(Br)c(-n2c(C)nc(Br)c2Cc2ccc(F)cc2F)c1Br [compound 477] | 0% | 0% | 0% | 0% | 9% | 0% | 75% |  |  |  |  |  |  | 
2 | COc1cc(F)c(-n2nnc(Cl)c2-c2ccc(Cl)cc2)c(F)c1 [compound 478] | 97% | 0% | 93% | 0% | 100% | 93% | 96% |  |  |  |  |  |  | 
3 | CCc1ccc(-n2c(C)nc(Cl)c2-c2c(F)ccc(OC)c2F)cc1 [compound 479] | 100% | 95% | 94% | 0% | 100% | 100% | 99% |  |  |  |  |  |  | 
4 | Cc1nc(Cl)c(-c2c(F)ccc(F)c2F)n1-c1ccc(Cl)c(Cl)c1 [compound 480] | 100% | 95% | 96% | 0% | 100% | 100% | 99% |  |  |  |  |  |  | 
5 | COc1ccc(F)c(-c2c(Cl)nc(Cl)n2-c2ccc(Cl)cc2)c1Cl [compound 481] | 100% | 99% | 95% | 0% | 100% | 100% | 97% |  |  |  |  |  |  | 
6 | COc1ccc(Cl)c(-c2c(Cl)ncn2-c2ccc(Cl)cc2)c1F [compound 482] | 99% | 69% | 95% | 0% | 99% | 99% | 91% |  |  |  |  |  |  | 
7 | COc1cc(F)c(-c2c(Cl)nc(Br)n2-c2cccc(Cl)c2)c(F)c1 [compound 483] | 100% | 0% | 94% | 32% | 100% | 99% | 98% |  |  |  |  |  |  | 
8 | COc1cc(F)c(-c2c(Cl)nc(Br)n2-c2ccc(F)c(F)c2)c(F)c1 [compound 484] | 100% | 89% | 95% | 28% | 100% | 100% | 100% |  |  |  |  |  |  | 
9 | Fc1cc(-n2c(Cl)nc(Cl)c2-c2ccnc(Br)c2)ccc1Cl [compound 485] | 98% | 0% | 95% | 0% | 96% | 88% | 98% |  |  |  |  |  |  | 
10 | Fc1cc(-n2c(Cl)nc(Cl)c2-c2cncc(Br)c2)ccc1Cl [compound 486] | 0% | 0% | 0% | 0% | 66% | 0% | 14% |  |  |  |  |  |  | 
11 | Fc1cc(-n2c(Cl)nc(Cl)c2-c2ccc(Br)cn2)ccc1Cl [compound 487] | 0% | 0% | 88% | 0% | 96% | 0% | 78% |  |  |  |  |  |  | 
12 | COc1cc(F)c(-c2c(Cl)nc(Cl)n2-c2ccc(C(F)(F)F)nc2)c(F)c1 [compound 488] | 100% | 100% | 93% | 41% | 99% | 100% | 100% |  |  |  |  |  |  | 
13 | Cc1nc(C)n(-c2ccc(Cl)c(F)c2)c1-c1c(F)ccc(F)c1Cl [compound 489] |  |  |  |  |  |  |  | 100* % | 0* % | 93* % | 0* % | 96* % | 98* % | 100* %
14 | Cc1ccc(-n2c(C)nc(C)c2-c2c(F)ccc(F)c2F)cc1 [compound 490] |  |  |  |  |  |  |  | 100* % | 0* % | 87* % | 0* % | 97* % | 99* % | 76* %
15 | Cc1nc(C)n(-c2ccc(F)cc2)c1-c1c(F)cc(F)cc1F [compound 491] |  |  |  |  |  |  |  | 0* % | 0* % | 91* % | 0* % | 92* % | 99* % | 0* %
16 | Cc1nc(Cl)n(-c2ccc(F)cc2)c1-c1c(F)cc(F)cc1F [compound 492] |  |  |  |  |  |  |  | 0* % | 0* % | 82* % | 0* % | 94* % | 100* % | 0* %
17 | Cc1ccc(-n2c(C)nc(C)c2-c2c(F)ccc(F)c2Cl)cc1 [compound 493] |  |  |  |  |  |  |  | 99* % | 0* % | 93* % | 0* % | 96* % | 99* % | 97* %
18 | Cc1nc(Cl)n(-c2ccc(Cl)c(F)c2)c1-c1c(F)ccc(F)c1Cl [compound 494] |  |  |  |  |  |  |  | 99* % | 0* % | 89* % | 0* % | 89* % | 99* % | 99* %
19 | Cc1ccc(-n2c(Cl)nc(C)c2-c2c(F)ccc(F)c2Cl)cc1 [compound 495] |  |  |  |  |  |  |  | 100* % | 0* % | 31* % | 0* % | 97* % | 99* % | 99* %
20 | Cc1ccc(-n2c(Cl)nc(C)c2-c2c(F)ccc(F)c2F)cc1 [compound 496] |  |  |  |  |  |  |  | 97* % | 0* % | 6* % | 0* % | 93* % | 99* % | 0* %
21 | COc1cc(F)c(-c2c(Cl)ncn2-c2cccc(Cl)c2)c(F)c1 [compound 497] | 100% | 100% | 97% | 0% | 97% | 99% | 100% |  |  |  |  |  |  | 
22 | COc1cc(F)c(-c2c(Cl)ncn2-c2ccc(F)c(F)c2)c(F)c1 [compound 498] | 100% | 95% | 95% | 0% | 99% | 100% | 100% |  |  |  |  |  |  | 
23 | COc1cc(F)c(-c2c(Cl)nc(C)n2-c2ccc(F)c(F)c2)c(F)c1 [compound 499] | 100% | 100% | 93% | 100% | 99% | 100% | 100% |  |  |  |  |  |  | 
24 | COc1cc(F)c(-c2c(Cl)nc(C)n2-c2cccc(Cl)c2)c(F)c1 [compound 500] | 100% | 100% | 94% | 98% | 98% | 100% | 100% |  |  |  |  |  |  | 
25 | COc1ccc(F)c(-c2c(Cl)nc(Br)n2-c2ccc(Cl)cc2)c1Cl [compound 501] | 99% | 98% | 95% | 0% | 98% | 99% | 67% |  |  |  |  |  |  | 
